{"source": "patent US12128173B2", "about": "“Dry powder drug delivery system and methods” (MannKind Corporation, priority 2012, dated 2024)", "key": {"[1]": {"test": "Powder flowability: Hausner ratio, compressibility (Carr's) index, angle of repose, critical orifice", "type": "physicochemical", "from_the_text": "FDKP microparticles either unmodified or containing a drug, for example insulin, constitute highly cohesive powders."}, "Solubility of FDKP by pH": {"test": "Solubility of FDKP by pH", "type": "physicochemical"}, "[2]": {"test": "VMGD and container emptying by laser diffraction, DPI 2 vs MEDTONE (Example 6)", "type": "physicochemical", "settings": "SSA 55, 4 kPa", "excerpt": "Typically, the geometric size of the emitted powder includes a volumetric distribution characterized by the median particle size, VMGD."}, "[3]": {"test": "In vitro powder emptying and VMGD, DPI 2 vs MTDS (Example 7)", "type": "physicochemical", "settings": "4 kPa", "excerpt": "In vitro powder performance for these systems was compared for various parameter of inhaler performance. For DPI 2 a single discharge per cartridge was used as compared to two discharges per cartridge in the MEDTONE® system.\nParticle sizing by laser diffraction and quantification of emitted mass as described above were used in these experiments. A laser diffraction instrument (Sympatec HELOS) was adapted with a novel pressurized inhaler chamber to facilitate analysis of powder plumes. MTDS cartridges were discharged twice per determination versus once with DPI 2."}, "[4]": {"test": "FDKP pharmacokinetics after inhalation, DPI 1 vs MEDTONE (Example 8)", "type": "in vivo, healthy volunteers", "from_the_text": "The MEDTONE® inhaler system was used for comparison. […] Powder used were crystalline powder formulations.\nDuring an inhalation maneuver, the patient was instructed to maintain a nominal pressure differential of 4-6 kPa combined with a short inhalation of 3-4 seconds or a long inhalation of 6-7 seconds. To generate a “hard” inhalation, the subject provided a nominal inhalation time of about 6.5 seconds and a peak pressure of 7 kPa. Conversely, to generate an “easy” inhalation, the subject provided a nominal inhalation time of about 6.5 seconds and a peak pressure of 5 kPa. Coupled with the inhalation monitoring apparatus, gravimetric assessment of the powder mass discharged from the cartridge was performed. This enabled a linkage between inhalation maneuver during dosing, cartridge discharge mass and pharmacokinetic profile determinations for each subject.\nThe study was an open-label, crossover, 2-part study in healthy volunteers.\nPart 2 was carried out as a 2-part, 2-way crossover study for evaluating the effect of flow rate (15 versus 30 LPM) and inhalation time (3 versus 6 seconds). For each parameter tested (i.e., flow rate, and inhalation time), ten subjects were crossed over for each parameter with 20 subjects total for all of the parameters. Pharmacokinetics of FDPK was assessed with each treatment from blood samples taken from the subjects."}, "[5]": {"test": "O-series vs U-series inhaler: discharge and particle size of crystalline and amorphous powders (Example 14)", "type": "physicochemical", "settings": "fill 25 mg, 4 kPa; for X84 avg: in µm (unit assumed)", "description": "These experiments were conducted to test various inhaler designs in trying to improve percent dose discharge or increase device emptying to acceptable ranges for certain types of powders used. […] In these experiments, therefore, two types of dry powder inhalers were designed and built. An O-series (FIGS. 49 and 50) dry powder inhaler wherein the inhaler comprises rigid conduits which generate a tumbling, recirculating action of an airflow through the powder container during an inhalation in an O-shape prior to the airflow exiting the container. A second inhaler or U-series was also designed and built for comparison wherein the dry powder inhaler comprised a rigid air conduit through the container substantially U-shaped and configured with a deflector so that in use an airflow entering the container redirects the airflow within the container void or space in a U-shape/semilunar path or downwardly prior to exiting the container. Powders tested were either crystalline or amorphous.\nThe rigid flow conduits as illustrated in FIGS. 49 and 51 can be adapted to any type of dry powder inhaler for delivering different types of powder compositions. In these experiments, crystalline and amorphous powders were tested with the two types of air flow conduits designed into the same type of inhalers, a single use disposable. […] Inhaler performance was tested and evaluated from measurements using various parameters, such as pressure differential, powder content prior to and after testing of various powders via a simulated single inhalation. The particle size distribution of the discharged powder plume for each inhaler used was also measured as described in Example 7 above."}, "[6]": {"test": "FDKP bioavailability versus intravenous bolus of radiolabeled FDKP", "settings": "model analysis"}, "[7]": {"test": "Post prandial glucose excursions during meal challenges", "type": "in vivo, healthy volunteers", "settings": "DPI 2 vs MEDTONE, doses not titrated"}}}
{"compound": "O=C(O)/C=C/C(=O)NCCCCC1NC(=O)C(CCCCNC(=O)/C=C/C(=O)O)NC1=O", "note": "(stereo not drawn) [FDKP, 3,6-bis(N-fumaryl-4-aminobutyl)-2,5-diketopiperazine]", "values": [{"measurement": "angle of repose", "setting": "[1]", "result": 40, "unit": "°"}, {"measurement": "solubility", "setting": "Solubility of FDKP by pH; at neutral or basic pH", "result": "readily soluble"}, {"measurement": "solubility", "setting": "Solubility of FDKP by pH; in acid", "result": "low solubility"}, {"measurement": "VMGD", "setting": "[2]; DPI 2, 56% trans", "result": 6.800, "unit": "micron"}, {"measurement": "VMGD", "setting": "[2]; MEDTONE, 56% trans", "result": 21.200, "unit": "micron"}, {"measurement": "Ave. VMGD", "setting": "[3]; DPI 2, fill 10 mg, single discharge", "result": 6.84, "unit": "μm"}, {"measurement": "Ave. VMGD", "setting": "[3]; MEDTONE (MTDS), fill 10 mg FDKP, two discharges", "result": 21.21, "unit": "μm"}, {"measurement": "better delivery of FDKP into the systemic circulation than MEDTONE", "setting": "[4]; DPI 1 vs MEDTONE", "result": "about 30%"}, {"measurement": "AVG mean AUC fdkp per emitted fdkp mass", "setting": "[4]; Part 1, DPI 1, 10 mg, nominal time and inhalation effort", "result": 3495, "unit": "ng*min/mL*mg fdkp"}, {"measurement": "AVG mean AUC fdkp per emitted fdkp mass", "setting": "[4]; Part 1, MT (MEDTONE), 10 mg, nominal time and inhalation effort", "result": 1934, "unit": "ng*min/mL*mg fdkp"}, {"measurement": "AVG mean AUC fdkp per emitted fdkp mass", "setting": "[4]; Part 2, DPI 1, 10 mg, long inhalation time", "result": 3289, "unit": "ng*min/mL*mg fdkp"}, {"measurement": "AVG mean AUC fdkp per emitted fdkp mass", "setting": "[4]; Part 2, DPI 1, 10 mg, short inhalation time", "result": 3310, "unit": "ng*min/mL*mg fdkp"}, {"measurement": "X16 avg", "setting": "[5]; Sample 1, O-series", "result": 1.9, "unit": "µm"}, {"measurement": "X50 avg", "setting": "[5]; Sample 1, O-series", "result": 6.86, "unit": "μm"}, {"measurement": "X84 avg", "setting": "[5]; Sample 1, O-series", "result": 21.55}, {"measurement": "X16 avg", "setting": "[5]; Sample 2, U-series", "result": 2.76, "unit": "µm"}, {"measurement": "X50 avg", "setting": "[5]; Sample 2, U-series", "result": 11.19, "unit": "μm"}, {"measurement": "X84 avg", "setting": "[5]; Sample 2, U-series", "result": 36.51}, {"measurement": "% of the FDKP delivered into the systemic circulation", "setting": "[6]; DPI 2, single inhalation, 6.7 mg total fill FDKP-insulin (FDKP about 6 mg)", "result": 64, "unit": "%"}, {"measurement": "% of the FDKP delivered into the systemic circulation", "setting": "[6]; MEDTONE, two inhalations, FDKP-insulin formulation", "result": 46, "unit": "%"}]}
{"compound": "insulin", "values": [{"measurement": "post prandial glucose excursions", "setting": "[7]", "result": "generally comparable glucose excursions"}]}
